Experimental data taken from patent US8470828B2, “Anellated pyridine compounds” (Hoffmann-La Roche Inc., priority 2010, dated 2013).
One block for each compound: values may come before it.

Assays:
human D3 receptor = human D3 receptor (Homo sapiens, UniProt P35462); experiment: Radioligand binding to cloned human D3 receptor expressed in HEK-293 EBNA cells ([3H]-spiperone)
Protocol: (§1) HEK293 EBNA cells were transiently transfected with expression plasmids encoding for the human D2 or D3 or for the human 5-HT2A receptor, respectively. The cells were harvested 48 h post-transfection, washed three times with cold PBS and stored at −80° C. prior to use. The pellet was suspended in cold 50 mM Tris-HCl buffer comprising 10 mM EDTA (pH 7.4) and was homogenized with a Polytron (Kinematica A G, Basel, Switzerland) for 20-30 sec at 12.000 rpm. After centrifugation at 48.000×g for 30 min at 4° C., the pellet was resuspended in cold 10 mM Tris-HCl buffer comprising 0.1 mM EDTA (pH 7.4), homogenized, and centrifuged as above. This pellet was further resuspended in a smaller volume of ice cold 10 mM Tris-HCl buffer comprising 0.1 mM EDTA (pH 7.4) and homogenized with a Polytron for 20-30 sec at 12.000 rpm. The protein content of this homogenate was determined with the Bio-Rad (Bradford) Protein Assay (Biorad Laboratories GmbH, München, Germany) according to the instructions of the manufacturer using gamma globulin as the standard. This homogenate was stored at −80° C. in aliquots and thawed immediately prior to use.
(§2) Aliquots of membrane preparations were thawed at RT, resupended in assay buffer (D2, D3: 50 mM Tris-HCl, 120 mM NaCl, 5 mM MgCl2, 1 mM EDTA, 5 mM KCl, 1.5 mM CaCl2, pH=7.4; 5-HT2A: 50 mM Tris-HCl, 10 mM MgCl2, 1 mM EGTA, pH=7.4), homogenized with a Polytron for 20-30 sec at 12.000 rpm and adjusted to a final concentration of approximately 7.5 μg protein/well (D2, D3) and 15 μg protein/well (5-HT2A), respectively.
(§3) The binding affinity (Ki) of the compounds was determined using radioligand binding. Membranes were incubated in a total volume of 200 μl with a fixed concentration of radioligand (final concentration approximately 0.7 nM [^3H]-spiperone for D2, 0.5 nM [^3H]-spiperone for D3, and 1.1 nM [^3H]-ketanserin for 5-HT2A) and ten concentrations of test compound in ranging between 10 μM-0.1 nM for 1 h at RT. At the end of the incubation, the reaction mixtures were filtered on to unifilter 96-well white microplates with bonded GF/C filters (Packard BioScience, Zürich, Switzerland; preincubated for 1 h in 0.1% polyethylenimine (PEI) in assay buffer) with a Filtermate 196 harvester (Packard BioScience) and washed 3 times with cold assay buffer. The nonspecific binding was determined with equally composed reaction mixtures in the presence of 10 μM unlabelled spiperone. Per well 45 μl of Microscint 40 (Perkin Elmer, Schwerzenbach, Switzerland) was added, plates for sealed, shaken for 20 min and counted for 3 min on a Topcount Microplate Scintillation Counter (Can berra Packard S A, Zürich, Switzerland) with quenching correction.
(§4) The CPM value for each duplicate of a concentration of competing compound was averaged (y1), then the % specific binding was calculated according to the equation (((y1−non-specific)/(total binding−non-specific))×100). Graphs were plotted with the % specific binding using XLfit, a curve fitting program that iteratively plots the data using Levenberg-Marquardt algorithm. The single site competition analysis equation used was y=A+((B−A)/(1+((x/C)D))), where y is the % specific binding, A is the minimum y, B is the maximum y, C is the IC50, x is the log 10 of the concentration of the competing compound and D is the slope of the curve (the Hill Coefficient). […] The affinity constant (Ki) was calculated using the Cheng-Prusoff equation Ki=(IC50/1+([L]/Kd), where [L] is the concentration of radioligand and Kd is the dissociation constant of the radioligand at the receptor as determined by the saturation isotherm.

human 5-HT2A receptor = human 5-HT2A receptor (Homo sapiens, UniProt P28223); experiment: Radioligand binding to cloned human 5-HT2A receptor expressed in HEK-293 EBNA cells ([3H]-ketanserin)
human D2 receptor = biological target: T1, human D2 receptor (Homo sapiens, UniProt P14416); experiment: Radioligand binding to cloned human D2 receptor expressed in HEK-293 EBNA cells ([3H]-spiperone); settings: HEK293 EBNA cell membranes, approximately 0.7 nM [3H]-spiperone, 1 h at RT
T1 construct: expressed in transfected cells; host or cells: HEK293 EBNA cells, transient transfection; membrane preparation
T1 sequence (P14416 whole entry): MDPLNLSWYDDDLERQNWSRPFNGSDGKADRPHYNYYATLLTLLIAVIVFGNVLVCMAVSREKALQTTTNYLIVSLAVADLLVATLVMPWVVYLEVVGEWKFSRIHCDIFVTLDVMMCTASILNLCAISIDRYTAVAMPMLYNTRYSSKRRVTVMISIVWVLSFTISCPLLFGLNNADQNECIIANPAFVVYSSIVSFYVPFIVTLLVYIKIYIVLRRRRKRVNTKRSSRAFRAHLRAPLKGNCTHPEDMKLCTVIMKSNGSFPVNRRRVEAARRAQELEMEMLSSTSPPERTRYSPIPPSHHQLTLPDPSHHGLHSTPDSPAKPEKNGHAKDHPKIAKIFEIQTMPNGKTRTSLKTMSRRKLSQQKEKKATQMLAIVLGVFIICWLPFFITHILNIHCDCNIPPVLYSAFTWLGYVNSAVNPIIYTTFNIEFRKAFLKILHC
Protocol: as §1, §2, §3, §4

human D3 receptor, sequence (P35462 whole entry): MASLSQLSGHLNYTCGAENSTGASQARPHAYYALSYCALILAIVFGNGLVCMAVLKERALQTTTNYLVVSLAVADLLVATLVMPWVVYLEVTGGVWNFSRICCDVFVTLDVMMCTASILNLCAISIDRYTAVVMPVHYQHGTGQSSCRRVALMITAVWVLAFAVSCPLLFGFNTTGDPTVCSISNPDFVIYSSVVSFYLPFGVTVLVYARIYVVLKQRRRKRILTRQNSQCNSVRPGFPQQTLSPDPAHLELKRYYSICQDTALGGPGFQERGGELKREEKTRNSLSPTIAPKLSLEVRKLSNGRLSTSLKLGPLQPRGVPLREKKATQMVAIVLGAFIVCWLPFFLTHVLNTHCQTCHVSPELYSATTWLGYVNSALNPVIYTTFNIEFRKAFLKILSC
human 5-HT2A receptor, sequence (P28223 whole entry): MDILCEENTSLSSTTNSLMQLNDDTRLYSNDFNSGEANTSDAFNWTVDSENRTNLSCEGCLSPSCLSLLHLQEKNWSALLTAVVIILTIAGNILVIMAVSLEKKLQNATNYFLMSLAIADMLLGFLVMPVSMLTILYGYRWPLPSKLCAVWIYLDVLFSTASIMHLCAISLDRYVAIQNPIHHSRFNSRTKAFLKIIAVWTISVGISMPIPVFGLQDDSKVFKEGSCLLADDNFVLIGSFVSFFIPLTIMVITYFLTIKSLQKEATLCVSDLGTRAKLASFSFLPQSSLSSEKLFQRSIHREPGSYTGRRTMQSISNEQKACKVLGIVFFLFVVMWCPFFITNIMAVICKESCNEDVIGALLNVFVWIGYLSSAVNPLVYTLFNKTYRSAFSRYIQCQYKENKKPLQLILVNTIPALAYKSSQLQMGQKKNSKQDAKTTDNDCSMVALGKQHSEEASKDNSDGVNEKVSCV

Structure (SMILES): O=C(N[C@H]1CC[C@H](CCN2CCN(c3nccc4c3OCC4)CC2)CC1)C1(O)CCC1 [Example 79, 1-Hydroxy-cyclobutanecarboxylic acid trans-(4-{2-[4-(2,3-dihydro-furo[2,3-c]pyridin-7-yl)-piperazin-1-yl]-ethyl}-cyclohexyl)-amide]
melting point: 250 °C | Ki (human D3 receptor): 0.0375 µM | Ki (human 5-HT2A receptor): 0.0157 µM | Ki (human D2 receptor): 0.623 µM

Structure (SMILES): CO[C@H](C)C(=O)N[C@H]1CC[C@H](CCN2CCN(c3nccc4c3OCC4)CC2)CC1 [Example 100, trans-(R)—N-(4-{2-[4-(2,3-Dihydro-furo[2,3-c]pyridin-7-yl)-piperazin-1-yl]-ethyl}-cyclohexyl)-2-methoxy-propionamide]
melting point: 170.5 °C | Ki (human D3 receptor): 0.0309 µM | Ki (human 5-HT2A receptor): 0.0229 µM | Ki (human D2 receptor): 0.714 µM

Structure (SMILES): C[C@]1(O)CC[C@@H](C(=O)N[C@H]2CC[C@H](CCN3CCN(c4nccc5c4OCC5)CC3)CC2)CC1 [Example 93, cis-4-Hydroxy-4-methyl-cyclohexanecarboxylic acid trans-(4-{2-[4-(2,3-dihydro-furo[2,3-c]pyridin-7-yl)-piperazin-1-yl]-ethyl}-cyclohexyl)-amide]
melting point: 219 °C | Ki (human D3 receptor): 0.0384 µM | Ki (human 5-HT2A receptor): 0.0307 µM | Ki (human D2 receptor): 0.832 µM

Structure (SMILES): O=C(N[C@H]1CC[C@H](CCN2CCN(c3nccc4c3OCC4)CC2)CC1)c1ccc(C(F)(F)F)cc1 [Example 55, trans-N-(4-{2-[4-(2,3-Dihydro-furo[2,3-c]pyridin-7-yl)-piperazin-1-yl]-ethyl}-cyclohexyl)-4-trifluoromethyl-benzamide]
melting point: 242.5 °C | Ki (human D3 receptor): 0.0515 µM | Ki (human 5-HT2A receptor): 0.0787 µM | D2 Ki (human D2 receptor): inactive

Structure (SMILES): O=C(N[C@H]1CC[C@H](CCN2CCN(c3nccc4c3OCC4)CC2)CC1)c1ccc(Cl)cc1Cl [Example 67, trans-2,4-Dichloro-N-(4-{2-[4-(2,3-dihydro-furo[2,3-c]pyridin-7-yl)-piperazin-1-yl]-ethyl}-cyclohexyl)-benzamide]
melting point: 243.5 °C | Ki (human D3 receptor): 0.0472 µM | Ki (human 5-HT2A receptor): 0.0933 µM | Ki (human D2 receptor): 5.05 µM

Structure (SMILES): O=C(N[C@H]1CC[C@H](CCN2CCN(c3nccc4c3OCC4)CC2)CC1)C(F)(F)F [Example 50, trans-N-(4-{2-[4-(2,3-Dihydro-furo[2,3-c]pyridin-7-yl)-piperazin-1-yl]-ethyl}-cyclohexyl)-2,2,2-trifluoro-acetamide]
melting point: 198.5 °C | Ki (human D3 receptor): 0.0295 µM | Ki (human 5-HT2A receptor): 0.0457 µM | Ki (human D2 receptor): 0.551 µM

Structure (SMILES): CN(C)C(=O)N[C@H]1CC[C@H](CCN2CCN(c3nccc4c3OCC4)CC2)CC1 [Example 94, trans-3-(4-{2-[4-(2,3-Dihydro-furo[2,3-c]pyridin-7-yl)-piperazin-1-yl]-ethyl}-cyclohexyl)-1,1-dimethyl-urea]
melting point: 217.5 °C | Ki (human D3 receptor): 0.082 µM | Ki (human 5-HT2A receptor): 0.135 µM | Ki (human D2 receptor): 0.429 µM

Structure (SMILES): O=C(N[C@H]1CC[C@H](CCN2CCN(c3nccc4c3OCC4)CC2)CC1)C1CCCO1 (mixture of isomers) [Example 82, (RS)-Tetrahydro-furan-2-carboxylic acid trans-(4-{2-[4-(2,3-dihydro-furo[2,3-c]pyridin-7-yl)-piperazin-1-yl]-ethyl}-cyclohexyl)-amide]
melting point: 145 °C | Ki (human D3 receptor): 0.0728 µM | Ki (human 5-HT2A receptor): 0.0204 µM | Ki (human D2 receptor): 1.14 µM

Structure (SMILES): O=C(C[C@H]1COCCO1)N[C@H]1CC[C@H](CCN2CCN(c3nccc4c3OCC4)CC2)CC1 [Example 32, trans-N-(4-{2-[4-(2,3-Dihydro-furo[2,3-c]pyridin-7-yl)-piperazin-1-yl]-ethyl}-cyclohexyl)-2-(S)[1,4]dioxan-2-yl-acetamide]
melting point: 181 °C | Ki (human D3 receptor): 0.0106 µM | Ki (human 5-HT2A receptor): 0.0189 µM | Ki (human D2 receptor): 0.822 µM

Structure (SMILES): CCS(=O)(=O)N[C@H]1CC[C@H](CCN2CCN(c3nccc4c3OCC4)CC2)CC1 [Example 27, Ethanesulfonic acid trans-(4-{2-[4-(2,3-dihydro-furo[2,3-c]pyridin-7-yl)-piperazin-1-yl]-ethyl}-cyclohexyl)-amide]
melting point: 190 °C | Ki (human D3 receptor): 0.0113 µM | Ki (human 5-HT2A receptor): 0.0605 µM | Ki (human D2 receptor): 0.367 µM

Structure (SMILES): CC(C)(C)Oc1ccc(C(=O)N[C@H]2CC[C@H](CCN3CCN(c4nccc5c4OCC5)CC3)CC2)cc1 [Example 76, trans-4-tert-Butoxy-N-(4-{2-[4-(2,3-dihydro-furo[2,3-c]pyridin-7-yl)-piperazin-1-yl]-ethyl}-cyclohexyl)-benzamide]
melting point: 168.5 °C | Ki (human D3 receptor): 0.0333 µM | Ki (human 5-HT2A receptor): 0.0443 µM | Ki (human D2 receptor): 0.814 µM

Structure (SMILES): N#Cc1ccc(C(=O)N[C@H]2CC[C@H](CCN3CCN(c4nccc5c4OCC5)CC3)CC2)cc1 [Example 72, trans-4-Cyano-N-(4-{2-[4-(2,3-dihydro-furo[2,3-c]pyridin-7-yl)-piperazin-1-yl]-ethyl}-cyclohexyl)-benzamide]
melting point: 262.5 °C | Ki (human D3 receptor): 0.0178 µM | Ki (human 5-HT2A receptor): 0.0246 µM | Ki (human D2 receptor): 0.633 µM

Structure (SMILES): O=S(=O)(N[C@H]1CC[C@H](CCN2CCN(c3nccc4c3OCC4)CC2)CC1)c1ccccc1 [Example 99, trans-N-(4-{2-[4-(2,3-Dihydro-furo[2,3-c]pyridin-7-yl)-piperazin-1-yl]-ethyl}-cyclohexyl)-benzenesulfonamide]
melting point: 122.5 °C | Ki (human D3 receptor): 0.006 µM | Ki (human 5-HT2A receptor): 0.151 µM | Ki (human D2 receptor): 0.233 µM

Structure (SMILES): O=S(=O)(N[C@H]1CC[C@H](CCN2CCN(c3nccc4c3OCC4)CC2)CC1)c1ccc(F)cc1 [Example 96, trans-N-(4-{2-[4-(2,3-Dihydro-furo[2,3-c]pyridin-7-yl)-piperazin-1-yl]-ethyl}-cyclohexyl)-4-fluoro-benzenesulfonamide]
melting point: 148 °C | Ki (human D3 receptor): 0.00527 µM | Ki (human 5-HT2A receptor): 0.204 µM | Ki (human D2 receptor): 0.2 µM

Structure (SMILES): O=C(CC1CCOCC1)N[C@H]1CC[C@H](CCN2CCN(c3nccc4ccoc34)CC2)CC1 [Example 12, trans-N-{4-[2-(4-Furo[2,3-c]pyridin-7-yl-piperazin-1-yl)-ethyl]-cyclohexyl}-2-(tetrahydro-pyran-4-yl)-acetamide]
melting point: 213 °C | Ki (human D3 receptor): 0.0147 µM | Ki (human 5-HT2A receptor): 0.0217 µM | Ki (human D2 receptor): 1.15 µM

Structure (SMILES): CO[C@H]1CC[C@H](CC(=O)N[C@H]2CC[C@H](CCN3CCN(c4nccc5ccsc45)CC3)CC2)CC1 [Example 4, 2-(trans-4-Methoxy-cyclohexyl)-N-{trans-4-[2-(4-thieno[2,3-c]pyridin-7-yl-piperazin-1-yl)-ethyl]-cyclohexyl}-acetamide]
Ki (human D3 receptor): 0.014 µM | Ki (human 5-HT2A receptor): 0.0096 µM | Ki (human D2 receptor): 0.739 µM

Further lines, results first:

melting point: 227.5 °C | Ki (human D3 receptor): 0.00443 µM | Ki (human 5-HT2A receptor): 0.0544 µM | D2 Ki (human D2 receptor): inactive
Structure (SMILES): Cc1nc(-c2cccc(C(=O)N[C@H]3CC[C@H](CCN4CCN(c5nccc6c5OCC6)CC4)CC3)c2)no1 [Example 64, trans-N-(4-{2-[4-(2,3-Dihydro-furo[2,3-c]pyridin-7-yl)-piperazin-1-yl]-ethyl}-cyclohexyl)-3-(5-methyl-[1,2,4]oxadiazol-3-yl)-benzamide]

Ki (human D3 receptor): 0.0019 µM | Ki (human 5-HT2A receptor): 0.0106 µM | Ki (human D2 receptor): 0.401 µM
Structure (SMILES): COCCC(=O)N[C@H]1CC[C@H](CCN2CCN(c3nccc4ccsc34)CC2)CC1 [Example 3, 3-Methoxy-N-{trans-4-[2-(4-thieno[2,3-c]pyridin-7-yl-piperazin-1-yl)-ethyl]-cyclohexyl}-propionamide]

melting point: 235 °C | Ki (human D3 receptor): 0.00761 µM | Ki (human 5-HT2A receptor): 0.0191 µM | Ki (human D2 receptor): 0.27 µM
Structure (SMILES): O=C(N[C@H]1CC[C@H](CCN2CCN(c3nccc4c3OCC4)CC2)CC1)c1ccc(-c2cccnc2)cc1 [Example 71, trans-N-(4-{2-[4-(2,3-Dihydro-furo[2,3-c]pyridin-7-yl)-piperazin-1-yl]-ethyl}-cyclohexyl)-4-pyridin-3-yl-benzamide]

melting point: 168 °C | Ki (human D3 receptor): 0.0104 µM | Ki (human 5-HT2A receptor): 0.0503 µM | Ki (human D2 receptor): 0.726 µM
Structure (SMILES): CCCCC(=O)N[C@H]1CC[C@H](CCN2CCN(c3nccc4c3OCC4)CC2)CC1 [Example 51, Pentanoic acid trans-(4-{2-[4-(2,3-dihydro-furo[2,3-c]pyridin-7-yl)-piperazin-1-yl]-ethyl}-cyclohexyl)-amide]

Ki (human D3 receptor): 0.0023 µM | Ki (human 5-HT2A receptor): 0.0119 µM | Ki (human D2 receptor): 0.392 µM
Structure (SMILES): CC(=O)N[C@H]1CC[C@H](CCN2CCN(c3nccc4ccsc34)CC2)CC1 [Example 1, N-{trans-4-[2-(4-Thieno[2,3-c]pyridin-7-yl-piperazin-1-yl)-ethyl]-cyclohexyl}-acetamide]

melting point: 186 °C | Ki (human D3 receptor): 0.00589 µM | Ki (human 5-HT2A receptor): 0.0303 µM | Ki (human D2 receptor): 0.276 µM
Structure (SMILES): O=C(N[C@H]1CC[C@H](CCN2CCN(c3nccc4c3OCC4)CC2)CC1)C1CCC1 [Example 23, Cyclobutanecarboxylic acid trans-(4-{2-[4-(2,3-dihydro-furo[2,3-c]pyridin-7-yl)-piperazin-1-yl]-ethyl}-cyclohexyl)-amide]

melting point: 187 °C | Ki (human D3 receptor): 0.00608 µM | Ki (human 5-HT2A receptor): 0.0485 µM
Structure (SMILES): O=C(Cc1ccc2c(c1)OCO2)N[C@H]1CC[C@H](CCN2CCN(c3nccc4c3OCC4)CC2)CC1 [Example 80, trans-2-Benzo[1,3]dioxol-5-yl-N-(4-{2-[4-(2,3-dihydro-furo[2,3-c]pyridin-7-yl)-piperazin-1-yl]-ethyl}-cyclohexyl)-acetamide]

Ki (human D3 receptor): 0.01 µM | Ki (human 5-HT2A receptor): 0.0077 µM | Ki (human D2 receptor): 0.433 µM
Structure (SMILES): CO[C@@H]1CC[C@@H](CC(=O)N[C@H]2CC[C@H](CCN3CCN(c4nccc5ccsc45)CC3)CC2)C1 (racemic) [Example 5, 2-(trans-3-Methoxy-cyclopentyl)-N-{trans-4-[2-(4-thieno[2,3-c]pyridin-7-yl-piperazin-1-yl)-ethyl]cyclohexyl}-acetamide]

Ki (human D3 receptor): 0.0019 µM | Ki (human 5-HT2A receptor): 0.0092 µM | Ki (human D2 receptor): 0.229 µM
Structure (SMILES): CCC(=O)N[C@H]1CC[C@H](CCN2CCN(c3nccc4ccsc34)CC2)CC1 [Example 2, N-{trans-4-[2-(4-Thieno[2,3-c]pyridin-7-yl-piperazin-1-yl)-ethyl]-cyclohexyl}-propionamide]
